Laboratory results: US20230097226A1, “GENERATING AORTA-GONAD-MESONEPHROS-LIKE HEMATOPOIETIC CELLS FROM HUMAN PLURIPOTENT STEM CELLS UNDER A DEFINED CONDITION” (Purdue Research Foundation, priority 2020, published 2023)

What was measured:
Format in all cases: cell-based, human
[1] = test system: hPSC-derived hemogenic endothelium; test: Hematopoietic specification of hPSC-derived hemogenic endothelium, flow cytometry for CD45; conditions: for generation of CD45+ hematopoietic cells: screening of chemicals and cytokines, feeder-free conditions, 19-9-11 iPSC-derived HE; for yield of resulting stem cells: day 12, differentiation factor applied at hematopoietic specification stage; for yield and purity of CD45+ hematopoietic cells on retrieval from the differentiation medium: day 15 cultures, SCF and FLT3L withdrawn; for efficiency of generating AGM-like hematopoietic stem cells when used in place of SB431542: Day 4-6 of differentiation
Experimental: While OP9-DLL4 stromal cells have been used to efficiently induce hematopoietic and immune cells from our small-molecule induced HE [32], the undefined nature of feeder cells may lead to inaccurate investigation of signaling pathways during hematopoiesis. Thus, to develop a chemically-defined hematopoietic specification platform, screening of known chemicals and cytokines was performed on our hPSC-derived AGM-like HE under feeder-free conditions (FIG. 2A). […] Wnt-059 and SB-induced hematopoiesis were also applicable to H9 and 6-9-9 hPSCs (FIG. 2E).
19-9-11, 19-9-7, 6-9-9, H1, H9 and H13 were obtained from WiCell and maintained on Matrigel- or iMatrix 511-coated plates in mTeSR plus or mTeSR1 medium according to a previously published method. RUES2 were kindly provided by Dr. Ali H. Brivanlou at the Rockefeller University. The Kolf2 and CT2 data were acquired in Dr. Yang Yang's lab and Dr. Ourania Andrisani's lab at Purdue. H9 7TGFβ Wnt reporter and 19-9-11 ischcat-1 as well as ischcat-2 lines were kindly provided by Dr. Sean Palecek at University of Wisconsin-Madison. To make hematopoietic cells, hPSCs were dissociated with 1 mM EDTA and seeded onto iMatrix 511 or Matrigel-coated 6-, 12- or 24-well plate at a cell density between 10,000 and 80,000 cell/cm^2 in mTeSR plus or mTeSR1 medium with 5 μM Y27632 for 24 hours (day-1). At day 0, cells were treated with 6 μM CHIR99021 (CHIR) in DMEM medium supplemented with 100 ug/ml ascorbic acid (DMEM/Vc), followed by a medium change with LasR basal medium at day 1, day 2 and day 3. For female hPSC lines, 50 ng/mL VEGF was added to the medium from day 2 to day 4. At day 4, medium was replaced by Stemline II medium (Sigma) supplemented 10 μM SB431542. After 2 days, SB431542-containing medium was aspirated and cells were maintained in Stemline II medium with or without 50 ng/mL SCF and FLT3L. At day 9 and every 2 to 3 days afterwards, aspirate half medium and add fresh Stemline II medium with or without SCF/FLT3L until analysis. Other media used to induce hematopoietic cells were illustrated in FIG. 8B.
(§1) Floating hematopoietic cells were gently pipetted and filtered through a 70 or 100 μm strainer sitting on a 50 ml tube. The cells were then pelleted by centrifugation and washed once in PBS−/−solution with 1% bovine serum albumin (BSA). The cells were stained with appropriate conjugated antibodies (Table 1) for 25 mins at room temperature in dark, and analyzed in Accuri C6 plus flow cytometer (Beckton Dickinson) after washing once with BSA-containing PBS−/−solution. FlowJo software was used to process collected flow data.

[2] = test system: hPSCs; test: Hemogenic endothelium differentiation of hPSCs, flow cytometry and immunostaining for CD34/SOX17; conditions: early CHIR treatment; day 5 cultures
Description: Producing hemogenic endothelium (HE) from hPSCs, marked by the expression of typical endothelial marker VE-cadherin, CD31, and CD34, is a vital step towards hematopoietic cell generation. We've previously developed a robust protocol to generate homogenous CD34+CD31+HE from hPSCs via small-molecule activation of Wnt signaling (FIG. 1A-B). Since simultaneous modulation of Wnt and Activin signaling yields aorta-like SOX17+ vessels in AGM that give rise to hematopoietic cells, we speculated that our small molecule-induced CD34+CD31+ cells are also SOX17+, which was confirmed by flow cytometry and immunostaining analysis of SOX17 expression (FIG. 1C-D). […] Importantly, the resulting CD34+SOX17+AGM-like HE didn't express CD235a, markers of primitive hematopoiesis.
19-9-11, 19-9-7, 6-9-9, H1, H9 and H13 were obtained from WiCell and maintained on Matrigel- or iMatrix 511-coated plates in mTeSR plus or mTeSR1 medium according to a previously published method. RUES2 were kindly provided by Dr. Ali H. Brivanlou at the Rockefeller University. […]
as §1, with “The cells were then pelleted by centrifugation and washed once in PBS−/−solution with 1% bovine serum albumin (BSA).” left out, “FlowJo software was used to process collected flow data.” left out

[3] = test system: Wnt signaling; test: RT-PCR of day 6 HE samples (WNT3A, AXIN2) and 7TGP Wnt reporter line; conditions: for transcriptional activity of endogenous Wnt signaling: H9 7TGP Wnt reporter line, day 6, eGFP flow cytometry; for expression of WNT3A and AXIN2: RT-PCR, day 6 HE samples
Experimental: Cells cultured on 24-well plate were collected and lysed in 500 μL TRIzol™ reagent (Invitrogen). Total RNA were then prepared with the Direct-zol RNA miniprep kit (Zymo) with in-column DNase treatment following the manufacture's instruction. cDNA was reverse transcribed from 1 μg RNA with ProtoScript First Strand cDNA Synthesis Kit (NEB) and used for RT-PCR with GoTaq Green Master Mix (Promega).

Q: Which results are given for `Cc1c[nH]c(-c2cnc(NCCNc3ccc(C#N)cn3)nc2-c2ccc(Cl)cc2Cl)n1` [CHIR99021]?
A: effect on hematopoiesis induced by SB ([1]; activation of Wnt signaling together with SB): blocked; CD34+SOX17+ population obtained [2]: homogenous CD34+SOX17+ population

Q: How did the “generation of CD45+ hematopoietic cells” value [1] turn out when `Cc1cc(-c2ccc(CC(=O)Nc3ccc(-c4cccnc4)cc3)cc2)ccn1` [Wnt-059] was run?
A: Its value is “significantly induced”.

Q: And the “transcriptional activity of endogenous Wnt signaling” value [3]?
A: Its value is “low transcriptional activity”.

Q: What about the “expression of WNT3A and AXIN2” value [3] of the same molecule?
A: The value was “low expression”.

Q: What does the source list for `NC(=O)c1ccc(-c2nc(-c3ccc4c(c3)OCO4)c(-c3ccccn3)[nH]2)cc1` [SB431542]?
A: CD45+ hematopoietic cells ([1]; SB treatment day 4 to 6, read on day 12, 19-9-11 iPSCs): more than 40%; yield of resulting stem cells [1]: 40.9%; generation of CD45+ hematopoietic cells [1]: significantly enhanced; transcriptional activity of endogenous Wnt signaling [3]: low transcriptional activity; expression of WNT3A and AXIN2 [3]: low expression

Q: With heparin as the molecule, how does the “promotion of hematopoietic cell production” value [1] read?
A: The value was “work well”.

Q: And the “yield of resulting stem cells” value [1]?
A: Its value is 20.6%.

Q: With stem cell factor [SCF] as the molecule, how does the “yield and purity of CD45+ hematopoietic cells on retrieval from the differentiation medium” value [1] read?
A: Its value is “reduced both the yield and purity”.

Q: With thrombopoietin [TPO] as the molecule, how does the “promotion of hematopoietic cell production” value [1] read?
A: Its value is “work well”.

Q: And the “yield of resulting stem cells” value [1]?
A: The value was 30.4%.

B1: FMS-like tyrosine kinase 3 ligand (protein, UniProt P49771 27-235, looked up)
Fms-related tyrosine kinase 3 …: TQDCSFQHSPISSDFAVKIRELSDYLLQDYPVTVASNLQDEELCGGLWRLVLAQRWMERLKTVAGSKMQGLLERVNTEIHFVTKCAFQPPPSCLRFVQTNISRLLQETSEQLVALKPWITRQNFSRCLELQCQPDSSTLPPPWSPRPLEATAPTAPQPPLLLLLLLPVGLLLLAAAWCLHWQRTRRRTPRPGEQVPPVPSPQDLLLVEH
notes: Recombinant Human Flt3-Ligand, Peprotech #300-19
Q: How did the “yield and purity of CD45+ hematopoietic cells on retrieval from the differentiation medium” value [1] turn out when B1 was run?
A: The value was “reduced both the yield and purity”.

B2: colony-stimulating factor 3 (protein, UniProt P09919 31-207, looked up)
Granulocyte …: TPLGPASSLPQSFLLKCLEQVRKIQGDGAALQEKLVSECATYKLCHPEELVLLGHSLGIPWAPLSSCPSQALQLAGCLSQLHSGLFLYQGLLQALEGISPELGPTLDTLQLDVADFATTIWQQMEELGMAPALQPTQGAMPAFASAFQRRAGGVLVASHLQSFLEVSYRVLRHLAQP
Q: How did the “efficiency of generating AGM-like hematopoietic stem cells when used in place of SB431542” value [1] turn out when B2 was run?
A: Its value is “lower efficiency”.

B3: IL-16: cytokine that could be used in place of SB431542, lower efficiency (protein, UniProt Q14005 1212-1332, looked up)
Interleukin-16: SAASASAASDVSVESTAEATVCTVTLEKMSAGLGFSLEGGKGSLHGDKPLTINRIFKGAASEQSETVQPGDEILQLGGTAMQGLTRFEAWNIIKALPDGPVTIVIRRKSLQSKETTAAGDS
Q: For B3, which “efficiency of generating AGM-like hematopoietic stem cells when used in place of SB431542” value [1] is on record?
A: Its value is “lower efficiency”.
